# Molecular target: Vibrio cholerae MARTX toxin cysteine protease domain (CPD) (Vibrio cholerae serotype O1, UniProt Q9KS12)
# Assay type: biochemical
# Conditions: increasing amounts of InsP6, 2 hrs at 4° C.
# Vibrio cholerae MARTX toxin cysteine protease domain (CPD), sequence (Q9KS12 3440-3650 limits assumed): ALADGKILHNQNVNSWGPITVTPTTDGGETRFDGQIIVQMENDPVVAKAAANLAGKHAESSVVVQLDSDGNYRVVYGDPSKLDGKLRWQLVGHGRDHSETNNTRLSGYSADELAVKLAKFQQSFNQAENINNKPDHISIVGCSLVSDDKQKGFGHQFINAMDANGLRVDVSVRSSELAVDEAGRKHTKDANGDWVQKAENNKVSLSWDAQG
compound,measurement,value
"O=P(O)(O)OC1C(OP(=O)(O)O)C(OP(=O)(O)O)C(OP(=O)(O)O)C(OP(=O)(O)O)C1OP(=O)(O)O (stereo not shown) [InsP6, inositol hexakisphosphate]",release of GFP from Ni2+-NTA agarose beads (CPD autoprocessing),stimulated the release of GFP

# From US20130012687A1, “INDUCIBLE SELF-CLEAVING PROTEASE TAG AND METHOD OF PURIFYING RECOMBINANT PROTEINS USING THE SAME” (The Board of Trustees of the Leland Stanford Junior …, priority 2009, published 2013)
